The results in this text go back to patent publication US20250127778A1, “CANCER IMMUNOTHERAPY COMPOSITION CONTAINING INTERACTION INHIBITOR OF STING AND TRIM29 AS ACTIVE INGREDIENT” (SPARK BIOPHARMA, INC, priority 2021, published 2025).

Data set [1] can be described thus: Body weight and toxicity signals in CT26 syngeneic mouse model. Particulars: treated individually or in combination, FIG. 24. Format: in vivo. The protocol: 2×10^5 CT26 cell lines were prepared in 50 μL culture medium and subcutaneously injected. […] The cGAMP solution was manufactured with a final composition of PEG400:distilled water=40:60, and 20 μL was injected each time. The solution of the compound of Formula 1 was manufactured with the composition of DMSO:PEG400:distilled water=2:40:58, and 20 μL was injected each time. The cGAMP solution was injected once every two days, four times in total, and the solution of the compound of Formula 1 was injected once every four days, two times in total, starting with the second administration of cGAMP. The size of the tumor was measured by using calipers every two days, and the volume thereof was calculated as (length×width×height/2). The body weight of the mice was also measured every two days.

Data set [2] relates to phosphorylation of downstream signaling proteins TBK1 and IRF3. Description: Western blotting of STING sub-immune signaling pathway activation. The format is cell-based. The settings on record: cGAMP alone; FIG. 7. The protocol:
First, the A431 cell line was seeded in a transparent 12-well plate and cultured for one day. Thereafter, the cells were treated with the compounds of Formulas 1 to 6, respectively, and then cultured for additional 24 hours. Finally, after supernatant culture medium of the cells was removed, the remaining supernatant was diluted and removed with PBS (phosphate buffer saline) to prepare a Western blotting sample. All procedures for preparing Western blotting sample were performed at 4° C. […] The protein concentration of the supernatant was measured by using the Micro BCA™ protein assay kit (ThermoFisher) according to the protocol of the manufacturer. […] The treated samples were analyzed by SDS-PAGE, then transferred to a PVDF membrane, and cultured in a TBST solution containing 4% BSA for 30 minutes. […] Finally, after four TBST washing processes, the solution was developed with an ECL (enhanced chemiluminescence) prime solution of Amersham, the chemical luminescence signal was measured by using ChemiDoc MP of Bio-Rad Laboratories, Inc., the obtained results were quantified by using the ImageLab 6.0 program, and the results were plotted by using the Prism 8.0 program. […]
For orientation: A western blot detects proteins with antibodies after separation by electrophoresis.

As for `Nc1nc2c(ncn2[C@@H]2O[C@@H]3COP(=O)(O)O[C@H]4[C@@H](O)[C@H](n5cnc6c(N)ncnc65)O[C@@H]4COP(=O)(O)O[C@@H]2[C@@H]3O)c(=O)[nH]1` [cGAMP, 2′,3′-Cyclic GMP-AMP, reference compound], the “body weight change or signal of toxicity” value in data set [1] was “significant change in body weight or signal of toxicity was not observed”. The “phosphorylation of TBK1 and IRF3” value in data set [2] was “increased”.
